“Also recorded” adds a separate entry of the source.

The record followed here is patent US12233129B2, “Methods and compositions for the treatment of cancer” (priority 2019, dated 2025).

Holding throughout (format): cell-based, human
The test system of one test is UBXN2A. Put plainly: Western blot of UBXN2A protein in treated HCT-116 cells. The note with it: VTD 20 and 40 μM, 24 hours. Here is the method:
Our in vivo results encouraged us to screen for compounds that can enhance expression of UBXN2A. Using the UBXN2A promoter upstream of a luciferase construct that was transiently transfected to HCT-116 cells, we performed a high-throughput drug screen with 1800 FDA approved drugs, synthetic compounds, and natural products. Forty-eight hours after transfection, cells were treated with compounds for 24 hours in triplicate (FIG. 16A). […] We looked at protein expression of UBXN2A as well as P47 (another member of the UBXD family) to confirm the selectivity of VH as a selective enhancer of UBXN2A protein in cells. […] We observed a different level of VH-dependent UBXN2A induction in different segments of the gastrointestinal system (esophagus to rectum; data not shown).
The alkaloid fraction of Veratrine is known to contain a mixture of two major alkaloid esters: Veratridine (VTD) and Cevadine. VTD, with a veratroyl group at the 3-OR1 position and a free hydroxyl group at the 15-O-R2 position can function as an antihypertensive plant-derived substance. […]
A cell-based screen was conducted in search of compounds that induce the expression of the UBXN2A gene. […] A glow luciferase activity assay was conducted in triplicate followed by semi-quantitative RT-PCR and WB analysis for UBXN2A, p47 (negative control), or GAPDH± Veratrine or its purified form VTD. […]
(A western blot detects proteins with antibodies after separation by electrophoresis.)

Test [1] has as its system UBXN2A silenced clones of HCT-116. Put plainly: Viability (MTT) and cell death (Sytox red flow cytometry) of UBXN2A silenced cells. Here is the method:
(§1) We decided to confirm whether VTD-induced tumor suppression is indeed mediated via the UBXN2A-mot-2-p53 axis (FIG. 18H). After initial verification with WB (FIG. 18A), HCT-116 (p53+/+ and p53 −/−) and LoVo were treated with VTD for 24, 48, and 72 hours (FIG. 18B-D). […] We defined this phenomenon as a delayed cytotoxic response, since it occurs through UBXN2A transcription, as previously described for other anti-cancer agents. […] In the second set of experiments, we treated two stable UBXN2A silenced clones of HCT-116 along with controls with VTD. […] Staurosporine-treated cells were used as a positive control (S4F). […] Finally, to understand the contribution of mot-2 to the anti-cancer mechanism of VTD, we used a mot-2 inhibitor known as MKT-077 [7] along with VTD in well-differentiated SW-48 (WT-p53) colon cancer cells for 72 hours. Due to the critical role of mot-2 in the mitochondria, we could not use a silencing strategy for mot-2 in this set of experiments.
The viability of cells was calculated as % of control.
FIG. 18: Veratridine (VTD) functions via the UBXN2A-mot-2-p53 axis. (A) WB confirmed the presence and the absence of p53 protein in HCT-116 p53^(+/+) and HCT-116 p53^(−/−) cancer cell lines, respectively. […] (F) In another set of experiments, UBXN2A-silenced cells were treated with VTD (100, 200, and 300 μM) for 24 hours. […]
(In general: In flow cytometry, cells or beads pass a laser one at a time.)

The test system of test [2] is SW-48 (WT-p53) colon cancer cells. Put plainly: Cell viability / clonogenic survival with and without mot-2 inhibitor MKT-077. Also on record: dose or concentration left out as unconfirmed. How it is done:
as §1
FIG. 18: Veratridine (VTD) functions via the UBXN2A-mot-2-p53 axis. (A) WB confirmed the presence and the absence of p53 protein in HCT-116 p53^(+/+) and HCT-116 p53^(−/−) cancer cell lines, respectively. […] (F) In another set of experiments, UBXN2A-silenced cells were treated with VTD (100, 200, and 300 μM) for 24 hours. Cells were then labelled with Sytox Red followed by flow cytometry analysis. […] (G) SW48 well-differentiated colon cancer cells with WT-p53 were treated with MKT-077 (5 mg/ml), an mot-2 inhibitor, along with VTD for 72 hours. […] (H) This flowchart recapped the sequence of proteins which activate and function upon VTD exposure to decrease cell viability. The data is shown as mean±SEM of three independent experiments (n=3) in triplicate where *p<0.05 using Benferroni's modified student's t-test.

On to `COc1ccc(C(=O)O[C@H]2CC[C@@]3(C)[C@@H]4CC[C@H]5[C@]6(O)C[C@H](O)[C@@]7(O)[C@@H](CN8C[C@@H](C)CC[C@H]8[C@@]7(C)O)[C@]6(O)C[C@@]53O[C@]24O)cc1OC` [VTD, Veratridine], for which the “UBXN2A protein expression (WB)” value in the test on UBXN2A is on record as “induces UBXN2A expression in a dose-dependent manner; also recorded: increases UBXN2A protein levels in a dose-dependent manner”. Also, the “cell viability of UBXN2A silenced cells versus control cells upon VTD” value in test [1] (MTT) is “greater cell viability than control cells; also recorded: significantly higher as compared to control cells”. Besides, the “cell death (Sytox red) of UBXN2A silenced cells upon VTD” value in test [1] (VTD 100, 200 and 300 μM, 24 hours) is “significant decrease in the cell death; also recorded: significantly decreases cell death”. Further, the “cell viability / colony number” value was “significantly decreased cell viability in a dose-dependent manner; also recorded: signifcantly decreases the colony number” in test [2] (VTD alone, 72 hours) and “no significant effect on cell viability” in test [2] (VTD with mot-2 inhibitor MKT-077, 72 hours).
